Results from US8227452B2, “Use of a steroid prodrug for the treatment of disease of the posterior segment of the eye” (Novagali Pharma SA, priority 2006, dated 2012).
Read-outs that look alike come from different tables or passages of the source.

How the values were obtained:
[1] = cited from earlier work
[2] = rabbit, in vivo
Text: Analytes and internal standard (roxithromycine) were extracted from the tissues using acetonitrile and separated by reverse phase liquid chromatography with a C8 column and a gradient mobile phase. […] The unweighed linear model was applied.

[3] = implantation of 0.59 mg or 2.1 mg, noninfectious posterior uveitis patients; cited from earlier work
[4] = high-dose intraocular, long-term follow-up; cited from earlier work
[5] = 0.59 mg intravitreal implant, patients with diabetic macular edema; cited from earlier work
[6] = subtenon administration; cited from earlier work
[7] = single oral administration of 7.5 mg dexamethasone

## C[C@@H]1C[C@H]2[C@@H]3CCC4=CC(=O)C=C[C@]4(C)[C@@]3(F)[C@@H](O)C[C@]2(C)[C@@]1(O)C(=O)CO [D, dexamethasone]
[1]; repeated topical application: 1 drop of 0.1% dexamethasone phosphate drops hourly for 10 hours
  Dexamethasone penetration into the vitreous humour: less than 2 ng/ml
[1]; [7]
  Serum level: 60 ng/mL
  Vitreous level: 5 ng/mL
[2]; 1 days
  Concentration in choroid, mean: 12 nmol/g
  Concentration in retina, mean: 7 nmol/g
[2]; 7 days
  Concentration in choroid, mean: 12 nmol/g
  Concentration in retina, mean: 11 nmol/g
[2]; 14 days
  Concentration in choroid, mean: 9 nmol/g
  Concentration in retina, mean: 6 nmol/g
[2]; 28 days
  Concentration in choroid, mean: 4 nmol/g
  Concentration in retina, mean: 4 nmol/g
[2]; 60 days
  Concentration in aqueous humor, mean: 0 nmol/g
  Concentration in choroid, mean: 3 nmol/g
  Concentration in retina, mean: 2 nmol/g

## CC1(C)O[C@@H]2C[C@H]3[C@@H]4C[C@H](F)C5=CC(=O)C=C[C@]5(C)[C@@]4(F)[C@@H](O)C[C@]3(C)[C@]2(C(=O)CO)O1 [fluocinolone acetonide]
[3]
  Augmentation of the need of IOP lowering agents: 5 fold
[4]
  Eyes developing elevated IOP: 100%
  Eyes requiring implant removal: approximately 60%
  Eyes showing nonischemic central retinal vein occlusion: 30%
[5]
  Serious cataract progression: 43.1%
  Serious intraocular pressure rise: 8.6%

## CC1(C)O[C@@H]2C[C@H]3[C@@H]4CCC5=CC(=O)C=C[C@]5(C)[C@@]4(F)[C@@H](O)C[C@]3(C)[C@]2(C(=O)CO)O1 [triamcinolone acetonide]
[6]
  Patients with intraocular pressure rise: 21%
